The results in this text go back to patent US6020121A (priority 1996, dated 2000).

For assay [1], the system named is Agr P3 promoter. The assay is described as follows: Agr P3-β-lactamase fusion screen: β-lactamase activity. The conditions noted are these: for Status from algorithm: Table 3; for β-Lactamase inhibition: corrected for cell density, screen at 10 μg/ml final, 6 hours, 35° C., negative = induction; for Behaviour in the P3-β-lactamase screen (in words): text.
Assay [2] has as its system Staphylococcus aureus strain 8325-4/pMP25. The assay is described as follows: Growth in presence of test compounds in the Agr screen. The conditions noted are these: compared to untreated Agr+ cells; screen at 10 μg/ml final, 6 hours, 35° C.
Assay [3] relates to Staphylococcus aureus. Description: Mucin-enhanced murine peritonitis model. The class given is in vivo, mice (Balb/c). The conditions noted are these: challenge dose of 10^10 cfu; 3.15 mg/kg.
The subject of assay [4] is alpha-hemolysin. It is filed as cell-based, Staphylococcus aureus.
The subject of assay [5] is RNAIII. The assay is described as follows: RNAIII Northern Blot in clinical strains. The class given is cell-based, Staphylococcus aureus. The conditions noted are these: several clinical strains of S. aureus (no. 212, 213, 215, and 217), FIG. 20. The text has this: FIG. 20. Northern Blots for RNAIII detection in several clinical strains of S. aureus (no. 212, 213, 215, and 217) grown in the presence of Compound 10. Untreated strain 8325-4 (Agr+) is also represented and acts as a control to show the maximal amounts of RNAIII also detected in all clinical strains grown without the test compound.

Assay [6] concerns RNAIII. Description: RNAIII Northern Blot.
Assay [7] concerns S. typhimurium chemotaxis. Description: Chemotaxis (swarm agar plates). It is filed as cell-based, Salmonella typhimurium. The conditions noted are these: S. typhimurium on ribose-containing swarm agar plates. From the text: Chemotaxis: Motility has been studied in a variety of bacteria. The molecular mechanisms of motility have been best characterized in E. coli and S. typhimurium but analogs of the molecular components have been detected in both Gram-negative and Gram-positive organisms (Morgan et al., J. Bacteriol. 175:133-140 (1993)). A two-component regulatory system composed of either cheA/cheY or cheA/cheB (Stewart and Dahlquist, Chem. Rev. 87:997-1025 (1987); MacNab, Motility and Chemotaxis, pp. 732-759, In F. C. Neidhardt, et al., ed., Escherichia coli and Salmonella typhimurium: cellular and molecular biology, American Society for Microbiology, Washington, D.C. (1987)), is central to the ability of these organisms to detect and respond appropriately to chemical substances. Such response can be detected on minimal swarm agar plates containing a chemoattractant (sugars or amino acids) (J. S. Parkinson, J. Bacteriol. 126:758-770 (1976)), or a capillary assay system, in which chemoattractant is placed in a capillary tube and immersed in a liquid bacterial culture. Bacteria capable of chemotaxis will swim into the capillary and can be detected by performing viable cell counts (Adler, J. Gen. Microbiol. 74:77-91 (1973)). […]

Assay [8] has as its system protein A. Description: Protein A expression immunoblot. The class given is cell-based, Staphylococcus aureus. The conditions noted are these: Table 4; relative to Agr- mutant cells. On the procedure: FIG. 18. Immunodetection of staphylococcal protein A in treated and untreated cultures. Cells were grown in presence of compounds 1, 2, or 3 to a similar density (O.D. 600 nm--0.5-0.6). Cells were lysed using lysostaphin prior to separation of cell surface proteins by SDS-PAGE. After electrophoretic transfer of proteins from the gel onto a nitrocellulose membrane, detection of protein A on the blot was possible by using a specific anti-protein A antibody and a second antibody that allowed chemiluminescent detection of immune complexes. The chemiluminescence was captured by autoradiography.
Protein A. Protein A expression is assayed by immunoblots of SDS-Page separated total cell proteins (Patel et al., Infection and Immunity 55:3103-3110 (1987)).
(Immunoblotting shows a protein as a band on a membrane.)

In assay [9] the test system is B. subtilis strain 168 sporulation. Description: Sporulation. It is filed as cell-based, Bacillus subtilis. To be noted: B. subtilis strain 168, compared to untreated controls. From the text:
Sporulation: Sporulation is a well-characterized event in many organisms, including Bacillus subtilis (spoIIJ/spo0A or spoIIJ/spo0F, Losick et al., Annu. Rev. Genet. 20:625-669 (1986); Smith, The initiation of sporulation,pp. 185-210, In I. Smith et al. eds., Regulation of procaryotic development, American Society for Microbiology, Washington, D.C. (1989)). It can be induced in various media (Leighton and Doi, J. Biol. Chem. 246:3189-3195 (1971); Piggot and Curtis, J. Bacteriol. 169:1260-1266 (1987)), and can be easily assayed (Nicholson and Setlow, Sporulation, germination, and outgrowth, pp. 391-429, In C. R. Harwood and S. M. Cutting eds., Molecular biological methods for Bacillus, John Wiley and Sons, Ltd., Chichester, West Sussex, England (1990)). Briefly, by heating the cells to 80-85° C. for 15-20 min, undifferentiated cells are killed while spores survive. Therefore, by determining the difference in viable cell count of control cultures versus heat treated cultures, it is possible to calculate the percent sporulation for a given culture or condition. Compounds that inhibit the signal transduction system responsible for the induction of sporulation will lower the viable cell count of the heat treated culture.

Entries after “also recorded” stand apart in the source; their conditions may differ. Where a SMILES comes first, the peptide text is derived from it. The star is where a group is joined. Cbz = O=C(OCc1ccccc1)*; Bz = O=C(c1ccccc1)*

For the compound `O=C(O)/C=C/c1ccc(Sc2ccc(Br)cc2)c([N+](=O)[O-])c1` [Compound 16], in [1], the Status from algorithm result is recorded as “Active” and the β-Lactamase inhibition is listed as 78%. Besides, the Growth in assay [2] worked out at 106%.

For `Cc1ccc(NN=C(C#N)C(=O)c2cc(C)nn2C(C)(C)C)cc1` [Compound 13], in assay [1], the Status from algorithm result is given as “Active” and the β-Lactamase inhibition was 75%. The Growth in [2] was determined as 111%.

As for `O=C1OC(c2cccnc2Sc2ccc(Cl)cc2)=NC1=Cc1ccc(C(F)(F)F)cc1` [Compound 18], in [1], the Status from algorithm result is given as “Active” and the β-Lactamase inhibition was found to be 75%. In addition, the Growth in assay [2] stood at 89%.

Consider `C=C(C)C=CCC1C(C)(O)CCC2C(C)(C)CCCC21C` (stereo not shown) [Compound 1], for which, in assay [1], the Status from algorithm result is on record as “Active” and the β-Lactamase inhibition worked out at 75%. For the same compound, the Growth in [2] is recorded as 105%.

Regarding `CCCc1c(C(=O)Nc2cccc(C(F)(F)F)c2)cnn1-c1ccccc1` [Compound 9], in assay [1], the Status from algorithm entry is on record as “Active” and the β-Lactamase inhibition is 86%. The Growth in [2] was 91%.

As to `CN(C)/C=C/C(=O)c1sc(SCc2ccc(Cl)cc2)c2c1CC(C)(C)CC2=O` [Compound 17], in assay [1], the Status from algorithm entry is “Active” and the β-Lactamase inhibition is listed as 83%. Further, the Growth in assay [2] was 87%.

Turning to `CN[C@H](CC(C)C)C(=O)N[C@H]1C(=O)N[C@@H](CC(N)=O)C(=O)N[C@H]2C(=O)N[C@H]3C(=O)N[C@H](C(=O)N[C@H](C(=O)O)c4cc(O)cc(O)c4-c4cc3ccc4O)[C@H](O)c3ccc(c(Cl)c3)Oc3cc2cc(c3O[C@@H]2O[C@H](CO)[C@@H](O)[C@H](O)[C@H]2O[C@H]2C[C@](C)(N)[C@H](O)[C@H](C)O2)Oc2ccc(cc2Cl)[C@H]1O` [vancomycin], the “treatment of infection (in words)” value in [3] was “treatable”. In assay [4], the “alpha-hemolysin activity (in words)” value is on record as “did not inhibit alpha-hemolysin activity”. In addition, the “Behaviour in the P3-β-lactamase screen (in words)” value (from here on “Behaviour”) in [1] is “do not behave as hits”.

Consider `O=C(Nc1ccccc1)OC(Cc1ccccc1)C(F)(F)F` (stereo not shown) [Compound 10], for which, in assay [1], the Status from algorithm entry is on record as “Active” and the β-Lactamase inhibition amounted to 84%. For the same compound, the Growth in assay [2] came to 107%. Also, the “RNAIII expression in clinical strains (in words)” value in assay [5] was “greatly reduced”.

`CCCCCCCCCCCC(=O)OCC(O)CO` (stereo not shown) [GML, Glycerol monolaureate, reference compound]: the “Behaviour” value in assay [1] was “did not qualify as a hit in the screen”. In addition, the “RNAIII production (in words)” value in assay [6] (FIGS. 14 and 15) is “showed no effect on RNAIII; also recorded: has no effect on RNAIII production”.

`C=C1C(=O)OC2CC1C(OC(C)=O)CC(C)=CCCC(C)=CCCC2(C)O` (stereo not shown) [Compound 15]: in assay [1], the Status from algorithm result is recorded as “Active” and the β-Lactamase inhibition is given as 76%. The Growth in assay [2] was 101%.

In the case of `Cc1cc(C(F)(F)F)cc(N(C)NC2OC(=O)c3ccccc32)n1` (stereo not shown) [Compound 12], in [1], the Status from algorithm result is listed as “Active” and the β-Lactamase inhibition worked out at 76%. The Growth in assay [2] stood at 124%.

For the compound `CC(=O)OC1CCC2(C)C(CC(=O)C3(C)C2CCC2(C)C(c4ccoc4)OC(=O)C4OC423)C1(C)C` (stereo not shown) [Compound 2], in assay [1], the Status from algorithm result was “Active” and the β-Lactamase inhibition is reported as 84%. Moreover, the Growth in [2] was found to be 122%.

Take `CC(CS)=NOC(=O)c1c(-c2ccccc2)noc1C` [Compound 11]: in [1], the Status from algorithm entry was “Active” and the β-Lactamase inhibition amounted to 77%. Further, in [2], the Growth was 104%. For the same compound, the “chemotaxis effect (in words)” value in assay [7] is “deregulated chemotaxis and enhanced swarm diameters of S. typhimurium; also recorded: not a chemi-attractant or -repellant itself”.

`CC(=O)OC1CCC2(C)C(CCC3C4CC5OC6(CCC(C)CO6)C(C)C5C(C)=C4CC32)C1` (stereo not shown) [Compound 6]: the “Protein A expression” value in [8] was “[+]”. Besides, in assay [1], the Status from algorithm result was “GR and Inducer”; the β-Lactamase inhibition is on record as -111%; the “Behaviour” value is “enhance the production of β-lactamase; also recorded: showed inducer rather than inhibitor activity”. In addition, in assay [1] (listed as compound 6), the “Behaviour” value was “increased activity of the β-lactamase reporter”. Further, the Growth in [2] is on record as 72%. The “RNAIII production (in words)” value in [6] (FIGS. 14 and 15) is “allowed overexpression of RNAIII”. The “RNAIII production (in words)” value in [6] (FIGS. 14 and 15, listed as compound 6) is “marked increase in RNAIII”.

As for `O=S(=O)(Nc1cc(C(F)(F)F)cc(C(F)(F)F)c1)c1cccc2nsnc12` [Compound 14], in assay [1], the Status from algorithm entry is “Active” and the β-Lactamase inhibition was found to be 77%. Also, the Growth in assay [2] is 94%. In [9], the “decrease in percent sporulation” value is “more than 50%”.

As to `O=C(O)c1cn(C2CC2)c2cc(N3CCNCC3)c(F)cc2c1=O` [ciprofloxacin, reference compound], in assay [4], the “alpha-hemolysin activity (in words)” value is “did not inhibit alpha-hemolysin activity”. The “Behaviour” value in assay [1] is reported as “do not behave as hits”.

For the compound `CC(C)CC(NC(=O)c1ccccc1)C(=O)NC(Cc1ccc(O)cc1)C(N)=O` (stereo not drawn) [Compound 8] (Bz-Leu-Tyr-NH2; configuration not given here), in assay [1], the Status from algorithm result is listed as “Active” and the β-Lactamase inhibition was 84%. Further, the Growth in assay [2] is reported as 101%.

For the compound `CC(C)CC(NC(=O)OCc1ccccc1)C(=O)NC(Cc1ccc(O)cc1)C(N)=O` (stereo not drawn) [Compound 7] (Cbz-Leu-Tyr-NH2; configuration not given here), in assay [1], the Status from algorithm entry is recorded as “Active” and the β-Lactamase inhibition is on record as 87%. In addition, the Growth in assay [2] is 103%.

Consider `CC(=O)OC1CC2C(C)(C)CCCC2(C)C2CCC3(C)C(=CC(=O)OC3c3ccoc3)C12C` (stereo not shown) [Compound 3], for which, in assay [1], the Status from algorithm entry was “GR and Active”; the β-Lactamase inhibition was found to be 83%. Besides, in assay [2], the Growth turned out to be 70%. The “decrease in percent sporulation” value in [9] is recorded as “more than 50%”.
